Assay results from ChEMBL document CHEMBL1201862, “PubChem BioAssay data set” (2004).
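Method: 48-hour compound exposure of cells in 96-well plates, five concentrations, linear interpolation of endpoints. Here, GI50 denotes the concentration required for 50% inhibition of growth.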 Calls of active or inactive are those of the source. No stated cut-off is given here; in the data, active = GI50 up to about 1.1 µM and inactive = higher.

How the values were obtained:
Assay in all cases: DTP human tumour cell line panel, 48 h
[1] = test system: MDA-MB-231
[2] = test system: UO-31
[3] = test system: A498
[4] = test system: ACHN
[5] = test system: EKVX
[6] = test system: MCF7
[7] = test system: DU-145
[8] = test system: OVCAR-5
[9] = test system: COLO 205
[10] = test system: HT-29
[11] = test system: HL-60
[12] = test system: T47D
[13] = test system: UACC-62
[14] = test system: Hs-578T
[15] = test system: HCT-116
[16] = test system: HCC 2998
[17] = test system: HOP-62
[18] = test system: NCI/ADR-RES
[19] = test system: HCT-15
[20] = test system: SF-268

| Structure (SMILES) | GI50 [1] | GI50 [2] | GI50 [3] | GI50 [4] | GI50 [5] | GI50 [6] | GI50 [7] | GI50 [8] | GI50 [9] | GI50 [10] | GI50 [11] | GI50 [12] | GI50 [13] | GI50 [14] | GI50 [15] | GI50 [16] | GI50 [17] | GI50 [18] | GI50 [19] | GI50 [20] |
| --- | --- | --- | --- | --- | --- | --- | --- | --- | --- | --- | --- | --- | --- | --- | --- | --- | --- | --- | --- | --- |
| O=C1/C(=C/c2ccccc2)CN(C(=O)CCN2CCCC2)C/C1=C\c1ccccc1 | 1.51 µM (inactive) | 2.77 µM (inactive) | 4.17 µM (inactive) | 1.98 µM (inactive) | 2.49 µM (inactive) | 0.64 µM (active) | 4.48 µM (inactive) | 3.16 µM (inactive) | 1.53 µM (inactive) | 0.867 µM (active) | 0.298 µM (active) | 1.76 µM (inactive) | 1.61 µM (inactive) | 0.282 µM (active) | 0.355 µM (active) | 1.77 µM (inactive) | 7.31 µM (inactive) | 0.27 µM (active) | 1.73 µM | 1.72 µM (inactive) |
| COc1cc2c(cc1C)NC(=O)/C2=C/c1c(Cl)[nH]c2cc(C)c(OC)cc12 | 13.2 µM (inactive) | 10 µM (inactive) | 8.73 µM (inactive) | 2.25 µM (inactive) | 8.04 µM (inactive) | 1.4 µM (inactive) | 2.36 µM (inactive) | 7.78 µM (inactive) | 2.33 µM (inactive) | 4.29 µM (inactive) | 0.187 µM (active) | 2.23 µM (inactive) | 2.07 µM (inactive) | 8.65 µM (inactive) | 3.85 µM (inactive) | 4.11 µM (inactive) | 10.1 µM (inactive) | 3.19 µM (inactive) | 3.72 µM | 2.79 µM (inactive) |
